Data reported in US9969742B2, “Imidazotriazinone compounds” (Ironwood Pharmaceuticals, Inc., priority 2012, dated 2018).
Like-named read-outs stand apart in the source and are kept apart here.

Experiments:
Type in all cases: biochemical
PDE1B = target: T1, PDE1B (Homo sapiens, UniProt Q01064); assay: Phosphodiesterase enzyme screening assay, PDE1B
T1 construct: purchased Reaction Biology Corporation, Malvern, Pa
Procedure, shortened: (§1)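 Read-out was electrophoretic mobility-shift separation on chip of fluorescent cyclic nucleotide from 5′-AMP/5′-GMP, with inhibition or enhancement judged against control wells (quadruplicate means). Reactions lasted 1 h at RT in HEPES pH 7.5 buffer with MgCl2, DTT and Brij plus 4.0 μM cGMP substrate, then were halted with EDTA stop buffer.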

PDE1A = target: T2, PDE1A (Homo sapiens, UniProt P54750); assay: Phosphodiesterase enzyme screening assay, PDE1A
T2 construct: purchased Reaction Biology Corporation, Malvern, Pa
Procedure, shortened: as §1

PDE9A2 = target: T3, PDE9A2 (Homo sapiens, UniProt O76083); assay: Phosphodiesterase enzyme screening assay, PDE9A2; conditions: read-out: Band (PDE9A2 IC50)
T3 construct: purchased Reaction Biology Corporation, Malvern, Pa
Procedure, shortened: as §1

[1] = Table 1, ratio of IC50 values, value greater than 1 indicates greater selectivity for PDE9A2
[2] = Table 1, 10 concentrations, 4.0 μM cGMP substrate, 1 hour at R.T.
[3] = 4.0 μM cGMP substrate, 1 hour at R.T.
[4] = ratio of IC50 values, value greater than 1 indicates greater selectivity for PDE9A2
[5] = ratio of IC50 values, PDE1B versus PDE9A2, value greater than 1 indicates greater selectivity for PDE9A2
[6] = ratio of IC50 values, PDE1A versus PDE9A2, value greater than 1 indicates greater selectivity for PDE9A2

T2 sequence (P54750 whole entry): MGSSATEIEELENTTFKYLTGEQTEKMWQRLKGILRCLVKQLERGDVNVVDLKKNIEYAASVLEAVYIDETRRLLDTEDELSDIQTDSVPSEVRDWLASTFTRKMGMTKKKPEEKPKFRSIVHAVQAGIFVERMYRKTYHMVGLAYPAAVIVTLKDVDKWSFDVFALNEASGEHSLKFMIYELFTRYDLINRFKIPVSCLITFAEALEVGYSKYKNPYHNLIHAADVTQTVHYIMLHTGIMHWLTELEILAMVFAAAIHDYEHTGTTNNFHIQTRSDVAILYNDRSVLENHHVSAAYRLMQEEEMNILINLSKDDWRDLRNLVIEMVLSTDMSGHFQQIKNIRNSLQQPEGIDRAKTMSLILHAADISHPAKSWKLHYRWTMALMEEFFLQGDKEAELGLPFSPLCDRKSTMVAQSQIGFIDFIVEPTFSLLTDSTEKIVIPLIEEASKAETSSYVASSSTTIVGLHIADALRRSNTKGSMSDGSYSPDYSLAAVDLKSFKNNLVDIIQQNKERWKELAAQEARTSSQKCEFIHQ
T1 sequence (Q01064 whole entry): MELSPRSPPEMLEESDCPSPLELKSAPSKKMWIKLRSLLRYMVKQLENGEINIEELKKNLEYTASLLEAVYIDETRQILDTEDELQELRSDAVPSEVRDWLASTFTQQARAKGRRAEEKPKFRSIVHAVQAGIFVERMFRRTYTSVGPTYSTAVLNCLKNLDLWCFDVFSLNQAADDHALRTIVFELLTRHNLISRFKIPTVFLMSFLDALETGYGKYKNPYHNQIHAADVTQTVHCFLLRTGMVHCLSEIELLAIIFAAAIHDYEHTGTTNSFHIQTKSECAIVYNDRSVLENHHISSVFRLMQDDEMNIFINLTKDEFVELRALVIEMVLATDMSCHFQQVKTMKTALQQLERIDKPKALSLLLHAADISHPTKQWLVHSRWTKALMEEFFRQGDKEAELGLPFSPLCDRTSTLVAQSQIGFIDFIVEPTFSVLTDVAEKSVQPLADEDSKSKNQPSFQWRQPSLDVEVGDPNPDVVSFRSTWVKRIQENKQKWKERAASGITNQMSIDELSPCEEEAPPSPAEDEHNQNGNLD
T3 sequence (O76083 1-533 isoform O76083-2): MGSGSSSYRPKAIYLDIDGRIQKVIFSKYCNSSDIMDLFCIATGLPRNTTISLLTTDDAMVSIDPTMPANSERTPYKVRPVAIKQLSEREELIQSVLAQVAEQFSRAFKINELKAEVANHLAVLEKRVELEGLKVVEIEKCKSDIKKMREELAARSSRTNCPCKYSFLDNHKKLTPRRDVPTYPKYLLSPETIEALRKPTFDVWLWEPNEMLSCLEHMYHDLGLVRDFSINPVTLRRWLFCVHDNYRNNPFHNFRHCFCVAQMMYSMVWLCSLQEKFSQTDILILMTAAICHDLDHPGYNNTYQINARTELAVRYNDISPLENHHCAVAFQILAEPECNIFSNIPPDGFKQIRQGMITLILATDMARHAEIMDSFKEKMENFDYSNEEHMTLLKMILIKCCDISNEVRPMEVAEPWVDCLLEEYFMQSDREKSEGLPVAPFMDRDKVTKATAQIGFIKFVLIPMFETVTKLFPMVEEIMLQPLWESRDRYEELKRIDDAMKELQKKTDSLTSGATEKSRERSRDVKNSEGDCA

| Structure (SMILES) | PDE1B selectivity (versus PDE9A2) (PDE1B; [1]) | PDE1A selectivity (versus PDE9A2) (PDE1A; [1]) | IC50 (PDE9A2; [2]) [nM] | IC50 (PDE9A2) [nM] | further results |
| --- | --- | --- | --- | --- | --- |
| CC1CN(Cc2ccc(C(F)(F)F)nc2)CC1c1nn2c(C3CCOCC3)ncc2c(=O)[nH]1 (single isomer, unassigned; (+)) [(+)-2-((3,4-trans)-4-methyl-1-((6-(trifluoromethyl)pyridin-3-yl)methyl)pyrrolidin-3-yl)-7-(tetrahydro-2H-pyran-4-yl)imidazo[5,1-f][1,2,4]triazin-4(3H)-one] | 980 | 333 | < 1000 |  |  |
| Cc1cccc(CN2CC(C)C(c3nn4c(C5CCOCC5)ncc4c(=O)[nH]3)C2)n1 (single isomer, unassigned; (+)) [(+)-2-((3,4-trans)-4-methyl-1-((6-methylpyridin-2-yl)methyl)pyrrolidin-3-yl)-7-(tetrahydro-2H-pyran-4-yl)imidazo[5,1-f][1,2,4]triazin-4(3H)-one] |  |  |  |  | PDE1B selectivity (versus PDE9A2) (PDE1B; ratio of IC50 values PDE1B / PDE9A2, value greater than 1 = greater selectivity for PDE9A2): 1005; PDE1A selectivity (versus PDE9A2) (PDE1A; ratio of IC50 values PDE1A / PDE9A2, value greater than 1 = greater selectivity for PDE9A2): 780; IC50 (PDE9A2; [3]): < 1000 nM |
| Cc1ccc(CN2CC(C)C(c3nn4c(C5CCOCC5)ncc4c(=O)[nH]3)C2)cn1 (single isomer, unassigned; (+)) [(+)-2-((3,4-trans)-4-methyl-1-((6-methylpyridin-3-yl)methyl)pyrrolidin-3-yl)-7-(tetrahydro-2H-pyran-4-yl)imidazo[5,1-f][1,2,4]triazin-4(3H)-one] | 177 | 97 | < 1000 |  |  |
| CC1CN(CC2CCOCC2)CC1c1nn2c(C3CCOCC3)ncc2c(=O)[nH]1 (single isomer, unassigned; (+)) [(+)-2-((3,4-trans)-4-methyl-1-((tetrahydro-2H-pyran-4-yl)methyl)pyrrolidin-3-yl)-7-(tetrahydro-2H-pyran-4-yl)imidazo[5,1-f][1,2,4]triazin-4(3H)-one] |  |  |  | < 1000 | PDE1B selectivity (versus PDE9A2) (PDE1B; [4]): 93; PDE1A selectivity (versus PDE9A2) (PDE1A; [4]): 77 |
| CC1CN(Cc2ncco2)CC1c1nn2c(C3CCOCC3)ncc2c(=O)[nH]1 (single isomer, unassigned; (+)) [(+)-2-((3,4-trans)-4-methyl-1-(oxazol-2-ylmethyl)pyrrolidin-3-yl)-7-(tetrahydro-2H-pyran-4-yl)imidazo[5,1-f][1,2,4]triazin-4(3H)-one] |  |  |  | < 1000 | PDE1B selectivity (versus PDE9A2) (PDE1B; [4]): 119; PDE1A selectivity (versus PDE9A2) (PDE1A; [4]): 81 |
| Cc1ccccc1-c1ncc2c(=O)[nH]c(C3CN(Cc4cnccn4)CC3C)nn12 (single isomer, unassigned; (+)) [(+)-2-((3,4-trans)-4-methyl-1-(pyrazin-2-ylmethyl)pyrrolidin-3-yl)-7-(o-tolyl)imidazo[5,1-f][1,2,4]triazin-4(3H)-one] |  |  |  | < 1000 | PDE1B selectivity (versus PDE9A2) (PDE1B; [5]): 469; PDE1A selectivity (versus PDE9A2) (PDE1A; [6]): 387 |
| CC1CN(Cc2cnn3ccccc23)CC1c1nn2c(C3CCOCC3)ncc2c(=O)[nH]1 (single isomer, unassigned; (+)) [(+)-2-((3,4-trans)-4-methyl-1-(pyrazolo[1,5-a]pyridin-3-ylmethyl)pyrrolidin-3-yl)-7-(tetrahydro-2H-pyran-4-yl)imidazo[5,1-f][1,2,4]triazin-4(3H)-one] |  |  |  | < 1000 | PDE1B selectivity (versus PDE9A2) (PDE1B; [4]): 1010; PDE1A selectivity (versus PDE9A2) (PDE1A; [4]): 3240 |
| CC1CN(Cc2cccnn2)CC1c1nn2c(C3CCOCC3)ncc2c(=O)[nH]1 (single isomer, unassigned; (+)) [(+)-2-((3,4-trans)-4-methyl-1-(pyridazin-3-ylmethyl)pyrrolidin-3-yl)-7-(tetrahydro-2H-pyran-4-yl)imidazo[5,1-f][1,2,4]triazin-4(3H)-one] | 276 | 182 | < 1000 |  |  |
| CC1CN(Cc2ccnnc2)CC1c1nn2c(C3CCOCC3)ncc2c(=O)[nH]1 (single isomer, unassigned; (+)) [(+)-2-((3,4-trans)-4-methyl-1-(pyridazin-4-ylmethyl)pyrrolidin-3-yl)-7-(tetrahydro-2H-pyran-4-yl)imidazo[5,1-f][1,2,4]triazin-4(3H)-one] | 99 | 71 | < 1000 |  |  |
| Cc1ccccc1-c1ncc2c(=O)[nH]c(C3CN(Cc4ccccn4)CC3C)nn12 (single isomer, unassigned; (+)) [(+)-2-((3,4-trans)-4-methyl-1-(pyridin-2-ylmethyl)pyrrolidin-3-yl)-7-(o-tolyl)imidazo[5,1-f][1,2,4]triazin-4(3H)-one] |  |  |  | < 1000 | PDE1B selectivity (versus PDE9A2) (PDE1B; [5]): 148; PDE1A selectivity (versus PDE9A2) (PDE1A; [6]): 73 |
| CC1CN(Cc2ccccn2)CC1c1nn2c(C3CCOCC3)ncc2c(=O)[nH]1 (single isomer, unassigned; (+)) [(+)-2-((3,4-trans)-4-methyl-1-(pyridin-2-ylmethyl)pyrrolidin-3-yl)-7-(tetrahydro-2H-pyran-4-yl)imidazo[5,1-f][1,2,4]triazin-4(3H)-one] | 470 | 373 | < 1000 |  |  |
| Cc1ccccc1-c1ncc2c(=O)[nH]c(C3CN(Cc4cccnc4)CC3C)nn12 (single isomer, unassigned; (+)) [(+)-2-((3,4-trans)-4-methyl-1-(pyridin-3-ylmethyl)pyrrolidin-3-yl)-7-(o-tolyl)imidazo[5,1-f][1,2,4]triazin-4(3H)-one] |  |  |  | < 1000 | PDE1B selectivity (versus PDE9A2) (PDE1B; [5]): 183; PDE1A selectivity (versus PDE9A2) (PDE1A; [6]): 103 |
| CC1CN(c2ncccn2)CC1c1nn2c(C3CCOCC3)ncc2c(=O)[nH]1 (single isomer, unassigned; (+)) [(+)-2-((3,4-trans)-4-methyl-1-(pyrimidin-2-yl)pyrrolidin-3-yl)-7-(tetrahydro-2H-pyran-4-yl)imidazo[5,1-f][1,2,4]triazin-4(3H)-one] | 1 | 1 | < 1000 |  |  |
| Cc1cnccc1-c1ncc2c(=O)[nH]c(C3CN(Cc4ncccn4)CC3C)nn12 (single isomer, unassigned; (+)) [(+)-2-((3,4-trans)-4-methyl-1-(pyrimidin-2-ylmethyl)pyrrolidin-3-yl)-7-(3-methylpyridin-4-yl)imidazo[5,1-f][1,2,4]triazin-4(3H)-one] |  |  |  |  | PDE1B selectivity (versus PDE9A2) (PDE1B; ratio of IC50 values PDE1B / PDE9A2, value greater than 1 indicates greater selectivity for PDE9A2): 63; PDE1A selectivity (versus PDE9A2) (PDE1A; ratio of IC50 values PDE1A / PDE9A2, value greater than 1 indicates greater selectivity for PDE9A2): 85; IC50 (PDE9A2; [3]): < 1000 nM |
| Cc1ccncc1-c1ncc2c(=O)[nH]c(C3CN(Cc4ncccn4)CC3C)nn12 (single isomer, unassigned; (+)) [(+)-2-((3,4-trans)-4-methyl-1-(pyrimidin-2-ylmethyl)pyrrolidin-3-yl)-7-(4-methylpyridin-3-yl)imidazo[5,1-f][1,2,4]triazin-4(3H)-one] |  |  |  | < 1000 | PDE1B selectivity (versus PDE9A2) (PDE1B; [5]): 127; PDE1A selectivity (versus PDE9A2) (PDE1A; [6]): 85 |
| Cc1ccccc1-c1ncc2c(=O)[nH]c(C3CN(Cc4ncccn4)CC3C)nn12 (single isomer, unassigned; (+)) [(+)-2-((3,4-trans)-4-methyl-1-(pyrimidin-2-ylmethyl)pyrrolidin-3-yl)-7-(o-tolyl)imidazo[5,1-f][1,2,4]triazin-4(3H)-one] | 119 | 84 | < 1000 |  |  |
| CC1CN(Cc2ccncn2)CC1c1nn2c(C3CCOCC3)ncc2c(=O)[nH]1 (single isomer, unassigned; (+)) [(+)-2-((3,4-trans)-4-methyl-1-(pyrimidin-4-ylmethyl)pyrrolidin-3-yl)-7-(tetrahydro-2H-pyran-4-yl)imidazo[5,1-f][1,2,4]triazin-4(3H)-one] | 174 | 136 | < 1000 |  |  |
| CC1CN(Cc2ccc3ncncc3c2)CC1c1nn2c(C3CCOCC3)ncc2c(=O)[nH]1 (single isomer, unassigned; (+)) [(+)-2-((3,4-trans)-4-methyl-1-(quinazolin-6-ylmethyl)pyrrolidin-3-yl)-7-(tetrahydro-2H-pyran-4-yl)imidazo[5,1-f][1,2,4]triazin-4(3H)-one] | 1067 | 890 | < 1000 |  |  |
| CC1CN(Cc2ccnc3ccccc23)CC1c1nn2c(C3CCOCC3)ncc2c(=O)[nH]1 (single isomer, unassigned; (+)) [(+)-2-((3,4-trans)-4-methyl-1-(quinolin-4-ylmethyl)pyrrolidin-3-yl)-7-(tetrahydro-2H-pyran-4-yl)imidazo[5,1-f][1,2,4]triazin-4(3H)-one] | 987 | 471 | < 1000 |  |  |
